From patent US20130064812A1, “COMBINATION THERAPIES FOR HEMATOLOGIC MALIGNANCIES” (Gilead Calistoga LLC, priority 2011, published 2013)

Tests used:
mTOR = mTOR (Homo sapiens, UniProt P42345); experiment: InvitroGen Adapta kinase assay, mTOR; type: biochemical
LB cells = experiment: LB cell proliferation with or without BMSCs ([3H]-thymidine uptake); type: cell-based, human; conditions: 0.625 μM-10 μM, 48 hours, presence of BMSC
Description: Cell proliferation was assessed using [^3H]-thymidine uptake assay. All data represent mean (±SD) of triplicate experiment.

[1] = test system: T47D and HS-578T cell lines; experiment: Proliferation of breast cancer cell lines (AlamarBlue); type: cell-based; conditions: 48 hrs and 72 hrs
Description: T47D and HS-578T cell lines were grown in the presence of serum plus the indicated concentrations of the compound of formula I. Proliferation was measured in triplicate wells by AlamarBlue® assay (Invitrogen) 96-well plates.

DLBCL cell lines = experiment: pAKT in DLBCL cell lines; type: cell-based
[2] = test system: mantle cell lymphoma lesions; experiment: Lesion area in a patient with mantle cell lymphoma; type: in vivo, human; conditions: 50 mg BID oral, 28 days (1 cycle)
Description: This example provides data relating to the area of lesions of a patient with mantle cell lymphoma after 1 cycle of treatment (28 days) with the compound of formula I. The area of 6 lesions was measured prior to treatment and after a cycle of treatment. […] The results are summarized in a bar graph found in FIG. 12.

leukemia cell lines = experiment: cells; type: cell-based; conditions: for apoptosis in leukemia cell lines: 1 μM or 10 μM, 24 hrs; for cellular viability of leukemia cell lines: 24 hours
Description: Proliferation assays (AlamarBlue®) on ALL cell lines grown in the presence of 10% FBS serum and measurements were taken at 24 hrs. Proliferation was measured in triplicate wells in 96-well plates.
The percentage of apoptotic cells was determined by Annexin V-FITC/7AAD staining.

patient AML cells = experiment: Phospho-Akt production in patient AML cells; type: cell-based, human; conditions: 0.1, 1.0, 10 μM
Text: PI3Kδ is implicated in signaling in AML patient cells.

INA-6 cells = experiment: Cleavage of caspases and PARP in INA-6 cells (western blot); type: cell-based, human; conditions: INA-6, 0-5 μM, 120 h
Text: Whole-cell lysates were subjected to sodium dodecyl sulfate-polyacrylamide gel electrophoresis (SDS-PAGE) separation, transferred to Pure Nitrocellulose membranes (Bio-Rad Laboratories, Hercules, Calif.), and immunoblotted with anti-AKT, phospho(p)-AKT (Ser473, Thr 308), ERK1/2, P-ERK1/2, P-PDK1, STAT, P-STAT, P-FKRHL, P-70S6K, LC3, and PI3K/p110α Abs (Cell Signaling Danvers, Mass.); anti-p110β, PI3K/p110δ, Glyceraldehyde 3-phosphate dehydrogenase (GAPDH), α-tubulin, and actin Abs (Santa Cruz Biotechnology, CA); and anti-p110γ Ab (Alexis, San Diego, Calif.): and anti-LC3 Ab (Abgent, San Diego, Calif.).
Total cell lysates were subjected to immunoblotting using anti-caspase-3, -8, -9, PARP, and α-tubulin Abs. FL indicates full-length protein, and CL indicates cleaved protein.

[3] = test system: LB and INA-6 MM cells with BMSCs; experiment: Paracrine MM cell growth, cytokine secretion and signaling with BMSCs; type: cell-based, human
Description: MM cells (2×10^4 cells/well) were cultured for 48 h in BMSC coated 96-well plates (Costar, Cambridge, Mass.), in the presence or absence of drug. DNA synthesis was measured by [3H]-thymidine (Perkin-Elmer, Boston, Mass.) uptake, with [3H]-thymidine (0.5μ Ci/well) added during the last 8 h of 48 h cultures. All experiments were performed in quadruplicate.
Cytokine secretion by human BMSCs cocultured with MM cells was assessed by ELISA. […] After 48 h, supernatants were harvested and stored at −80° C. Cytokines were measured using Duo set ELISA Development Kits (R&D Systems, Minneapolis, Minn.). All measurements were carried out in triplicate.
The cytokine levels in culture supernatants were assessed using Proteome Profiler Antibody Arrays Panel A (R&D Systems, Minneapolis, Minn.), Supernatants from co-cultures with BMSCs were incubated for 4 hours with membranes arrayed with Abs against 37 cytokines, according to manufacturer's instructions.
DNA synthesis was determined by [3H]-thymidine incorporation. Data represent means (±SD) of triplicate cultures.
Error bars indicate SD (±).
INA-6 cells cultured with or without BMSCs were treated with compound for 48 h. Total cell lysates were subjected to immunoblotting using indicated antibodies, FIG. 34F. Actin was used as a loading control.

[4] = test system: primary MCL cells and MCL cell lines; experiment: PI3K signaling in primary MCL cells and MCL cell lines; type: cell-based, human
[5] = test system: relapsed or refractory indolent B-cell NHL and CLL; experiment: Clinical study, combination with rituximab or bendamustine, 20 patients (Example 39); conditions: human, in vivo
Description: (§1) 20 patients were enrolled, including 12 with iNHL and 8 with CLL. All patients received the compound of formula I, either 100 mg orally twice per day (BID) or 150 mg orally twice per day (BID) for as long as the patient was benefiting. Patients also received either rituximab 375 mg/m^2 administered weekly for 8 weeks, starting on Day 1 of Cycle 1, or bendamustine 90 mg/m^2 administered on Days 1 and 2 of each cycle for 6 cycles. Tumor response was evaluated according to standard criteria.

[6] = test system: previously treated B-cell malignancies (iNHL, CLL); experiment: Clinical study, combination with rituximab or bendamustine, 49 patients (Example 42); conditions: human, in vivo
Text: 49 patients were enrolled in the study, including 27 with iNHL and 22 with CLL. At the baseline, patients had adverse prognostic characteristics, including older age, bulky adenopathy, and refractory disease. All patients had received ≧1 prior treatment regimen and some had received as many 9 prior regimens. Prior treatment included rituximab, alkylating agents and/or fludarabine; the majority of patients with iNHL had been treated with prior anthracycline-containing therapy. Follow-up was early in many patients, with durations of therapy ranging from 1 to 12 cycles.
as §1, with “All” for “20 patients were enrolled, including 12 with iNHL and 8 with CLL. All”

CLL patients = experiment: Samples from CLL patients undergoing treatment (phospho-flow, plasma cytokines); type: in vivo, human

With `CC[C@H](Nc1ncnc2[nH]cnc12)c1nc2cccc(F)c2c(=O)n1-c1ccccc1` [Compound I, 5-fluoro-3-phenyl-2-[1-(9H-purin-6-ylamino)-propyl]-3H-quinazolin-4-one] as the molecule, how does the IC50 (mTOR) read?
The IC50 was > 1000 nM.

And the LB cell growth (LB cells)?
The LB cell growth was “LB cell growth is reduced”.

And the “proliferation of breast cancer cell lines” value [1]?
Its value is “reduces cellular proliferation of two breast cancer cell lines”.

What about the “proliferation of breast cancer cell lines” value ([1]; listed as compound of formula I) of the same molecule?
Its value is “inhibits proliferation of breast cancer cell lines”.

What about the “pAKT levels in DLBCL cell lines” value (DLBCL cell lines) of the same molecule?
The value was “reduces pAKT levels in several DLBCL cell lines”.

What about the “decrease in tumor burden” value [2] of the same molecule?
Its value is 44%.

And the “apoptosis in leukemia cell lines” value (leukemia cell lines)?
The value was “increase in apoptosis in the treated cells”.

What about the “apoptosis in leukemia cell lines” value (leukemia cell lines; listed as compound I) of the same molecule?
Its value is “induces apoptosis in leukemia cell lines”.

What about the cytotoxicity at 10 µM (leukemia cell lines; 24 h, read-out: reduction of viability) of the same molecule?
Its cytotoxicity at 10 µM is 40 to 50%.

And the “cellular viability of leukemia cell lines” value (leukemia cell lines)?
Its value is “strongly affected by 5-10 micromolar concentrations”.

What about the “cellular viability of leukemia cell lines” value (leukemia cell lines; listed as compound I) of the same molecule?
Its value is “reduces cellular viability in a dose dependent manner”.

And the “phospho-Akt production in patient AML cells” value (patient AML cells)?
Its value is “reduces phospho-Akt production in patient AML cells”.

And the “cleavage of caspases and PARP” value (INA-6 cells)?
The value was “Significantly increased cleavage of caspase-8, caspase-9, caspase-3, and PARP”.

And the “MM cell growth and cytokine secretion induced by BMSCs” value ([3]; 48 h)?
The value was “inhibited growth and cytokine secretion”.

And the “phosphorylation of AKT and ERK induced by BMSCs” value ([3]; INA-6, 48 h)?
Its value is “inhibited”.

What about the “pAkt in MCL lines exposed to survival factors” value [4] of the same molecule?
Its value is “significant reduction of pAkt”.

What about the “constitutive PI3K signaling in primary MCL cells” value ([4]; two patients, 0.1 μM or 1 μM) of the same molecule?
Its value is “block constitutive PI3K signaling in primary MCL cells of two patients in a dose dependent manner”.

And the dose-limiting toxicities [5]?
Its dose-limiting toxicities is “No dose-limiting toxicities related to the compound of formula I were observed”.

And the dose-limiting toxicities [6]?
Its dose-limiting toxicities is “No dose-limiting toxicities related to the compound of formula I were observed”.

And the “mean plasma level of CCL3” value (CLL patients; Day28+, baseline 186 pg/mL, 14 CLL patients)?
Its value is 29 pg/mL.

And the “mean plasma level of CXCL13” value (CLL patients; Day28+, baseline 316 pg/mL, 14 CLL patients)?
The value was 40 pg/mL.

And the “mean plasma level of TNFα” value (CLL patients; Day28+, baseline 104, 14 CLL patients)?
The value was 29 pg/mL.

And the “mean plasma level of CCL4” value (CLL patients; Day28+, baseline 303, 14 CLL patients)?
The value was 70 pg/mL.

And the “mean plasma level of CCL22” value (CLL patients; Day28+, baseline 1067, 14 CLL patients)?
The value was 533 pg/mL.

What about the “down-regulation of pAkt(T308) in peripheral CLL cells” value (CLL patients; patients on treatment, n=12) of the same molecule?
Its value is > 90%.
